Reference: US11965159B2, “Compositions and methods for regulating proteins and nucleic acids activities” (THE BROAD INSTITUTE, INC., priority 2019, dated 2024)

Columns and labels:
[1] = target: T1, dCas9-cytidine deaminase conjugate (BE3) (UniProt P14739+P38483+Q99ZW2, D10A); assay: BE3 base-editing of EMX1 gene in HEK293T cells; assay type: cell-based; conditions: 1.25-20 μM, 72 h; BE3:gRNA ribonucleoprotein delivery
T1 construct: His6 (N); made in house; host or cells: E. coli BL21 Star (DE3); purified protein lipofected as BE3:gRNA RNP into HEK293T cells
Protocol: Protein transfection of base editor BE3 into HEK293T cells. HEK293T cells were seeded on 48-well BioCoat® poly-D-lysine plates (Corning®) in 250 μL of antibiotic-free medium and transfected at ˜70% confluency. Prior to protein transfection, cells were incubated with 2 μL of DMSO-suspended BRD7087 or BRD5779 at the indicated concentration for 2-3 hours. BE3 protein was incubated with 1.1× molar excess of EMX1-targeting sgRNA at a final concentration ratio of 200 nM: 220 nM (based on a total well volume of 275 μL). The complex was mixed with 0.2 μL of compound for five minutes, incubated with 1.5 μL Lipofectamine™ 2000 (THERMOFISHER) and transfected according to the manufacturer's protocol plasmid delivery. […]
Purifications and sequencing of genomic DNA. […] Barcoded samples were pooled and purified by gel extraction (QIAGEN) before quantification using the Qubit™ dsDNA HS Kit (THERMOFISHER) and qPCR (KAPA BioSystems) according to the manufacturer's instructions. Sequencing of pooled samples was performed using a single-end read from 260 to 300 bases on the MiSeq™ ([…]) according to the manufacturer's instructions.
Analysis of base-edited sequences. Nucleotide frequencies were analyzed using a previously described MATLAB script 5. Briefly, the reads were aligned to the reference sequence via the Smith-Waterman algorithm. […]

[2] = target: SpCas9 (Streptococcus pyogenes serotype M1, UniProt Q99ZW2); assay: mKate2 expression (knockdown/disruption) assay; assay type: cell-based; conditions: read-out: inhibition activity in mKate2 disruption assay
Protocol: Where σ1 and σ2 are the standard deviations of DN66 transfected wells and (DN66+DN78) transfected wells respectively. μ1 and μ2 are the mean % GFP− cell population for DN66 transfected wells and (DN66+DN78) transfected wells respectively. mKate2 expression assay. Approximately 8,000 cells/well were plated in a 96-well format 24 h before transiently transfected with 100 ng of either CgRNA (Addgene Plasmid #64955) or T1 gRNA (Addgene Plasmid #62717) plasmids using Lipofectamine™ 2000 (Life Technologies™). Transfected cells were allowed to grow in the indicated amount of compound or DMSO for 24 h. Cells were then fixed using 4% paraformaldehyde and imaged with the HCS NuclearMask™ Blue Stain (Life Technologies™) as the nuclear counter-staining agent. […] Images were analyzed in the MetaXpress® software to determine the % mKate2 positive cells and the % NHEJ was calculated following a reported protocol and plotted using GraphPad Prism 6. The Z′-value was calculated following the formula:
mKate2 expression assay. […] Images were analyzed in the MetaXpress® software to determine the % mKate2 positive cells and the % NHEJ was calculated following a reported protocol and plotted using GraphPad Prism 6. The Z′-value was calculated following the formula: […]

Sequence of SpCas9 (Q99ZW2 whole entry): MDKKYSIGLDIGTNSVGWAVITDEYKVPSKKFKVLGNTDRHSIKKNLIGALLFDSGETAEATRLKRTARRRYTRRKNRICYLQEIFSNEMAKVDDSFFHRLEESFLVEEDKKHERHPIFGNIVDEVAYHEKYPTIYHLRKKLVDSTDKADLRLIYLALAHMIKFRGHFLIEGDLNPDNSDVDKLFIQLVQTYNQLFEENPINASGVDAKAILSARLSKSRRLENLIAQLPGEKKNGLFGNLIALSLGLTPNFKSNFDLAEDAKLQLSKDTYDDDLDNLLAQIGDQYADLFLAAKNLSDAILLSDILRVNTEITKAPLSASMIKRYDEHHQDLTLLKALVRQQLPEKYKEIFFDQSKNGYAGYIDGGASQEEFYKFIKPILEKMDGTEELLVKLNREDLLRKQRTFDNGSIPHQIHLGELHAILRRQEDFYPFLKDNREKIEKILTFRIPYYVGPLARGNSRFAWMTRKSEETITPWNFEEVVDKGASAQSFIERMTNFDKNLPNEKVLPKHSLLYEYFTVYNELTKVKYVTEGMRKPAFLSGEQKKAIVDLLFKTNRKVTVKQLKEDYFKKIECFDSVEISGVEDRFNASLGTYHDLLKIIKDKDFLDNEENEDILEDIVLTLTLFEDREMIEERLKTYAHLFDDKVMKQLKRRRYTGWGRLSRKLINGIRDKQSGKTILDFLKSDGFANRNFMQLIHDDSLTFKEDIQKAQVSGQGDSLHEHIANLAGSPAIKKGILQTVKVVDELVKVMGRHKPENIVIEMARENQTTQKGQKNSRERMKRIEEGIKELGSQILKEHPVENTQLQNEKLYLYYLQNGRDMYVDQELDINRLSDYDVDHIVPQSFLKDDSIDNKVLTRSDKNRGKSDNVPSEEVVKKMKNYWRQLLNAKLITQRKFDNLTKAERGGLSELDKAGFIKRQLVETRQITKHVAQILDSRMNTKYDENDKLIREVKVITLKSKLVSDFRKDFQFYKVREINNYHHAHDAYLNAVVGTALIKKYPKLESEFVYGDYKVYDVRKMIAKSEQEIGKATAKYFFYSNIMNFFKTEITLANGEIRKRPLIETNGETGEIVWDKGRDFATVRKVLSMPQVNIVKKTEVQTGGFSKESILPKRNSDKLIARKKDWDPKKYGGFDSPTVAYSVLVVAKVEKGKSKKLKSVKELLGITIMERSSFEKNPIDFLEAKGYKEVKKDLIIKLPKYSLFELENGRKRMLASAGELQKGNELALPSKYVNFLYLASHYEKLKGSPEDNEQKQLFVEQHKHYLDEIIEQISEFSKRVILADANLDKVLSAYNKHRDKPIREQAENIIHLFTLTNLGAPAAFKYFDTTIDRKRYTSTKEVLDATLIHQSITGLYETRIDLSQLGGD

SMILES | inhibition of BE3-mediated base-editing (C→T conversion, EMX1) [1] | inhibition at 5 µM [2]
COc1ccc(-c2ccc3c(c2)[C@H]2[C@H](CCN2Cc2ccncc2)[C@@H](CO)N3)cc1 [BRD5779, ((3aR,4S,9bR)-8-(4-Methoxyphenyl)-1-(pyridin-4-ylmethyl)-2,3,3a,4,5,9b-hexahydro-1H-pyrrolo[3,2-c]quinolin-4-yl)methanol] | efficient and dose-dependent inhibition | –
OC[C@H]1Nc2ccc(-c3cccc(F)c3)cc2[C@H]2[C@@H]1CCN2Cc1ccncc1 [BRD7087, ((3aR,4S,9bR)-8-(3-Fluorophenyl)-1-(pyridin-4-ylmethyl)-2,3,3a,4,5,9b-hexahydro-1H-pyrrolo[3,2-c]quinolin-4-yl)methanol] | efficient and dose-dependent inhibition | 50%
